The text below walks through data of patent US7892764B2, “System for seizure suppression” (priority 2006, dated 2011).

One assay concerns mouse hippocampal slices. Kind of assay: Basal synaptic transmission: fEPSP in hippocampal CA1 region in the presence of Mg2+. Type of assay: cell-based. The conditions noted are these: amiloride 100 μM. The procedure: FIG. 6. Representative field-EPSPs and summary data showing the lack of inhibition by amiloride on basal synaptic transmission. In the presence of Mg^2+ (1.0 mM), stimulation of Schaffer collaterals induced field excitatory postsynaptic potential (fEPSP) in the CA1 region of the hippocampus.
Preparation of hippocampal slices and brain slice recording. Hippocampal slices were obtained from 8- to 10-week-old mice. The protocol for brain-slice recording was approved by the Institutional Animal Care and Use Committee of Legacy Research. Animals were deeply anesthetized with isoflurane and decapitated. Brains were quickly removed and placed in ice-cold solution that contained: 125 mM sucrose, 2.5 mM KCl, 26 mM NaHCO3, 1.25 mM NaHPO4, 6.0 mM […], 0.5 mM CaCl2, and 10 mM glucose, and was saturated with 95% O2 and 5% CO2 (pH 7.4). […]
Following ˜60 min of incubation at room temperature, individual slices were transferred to a submerged slice chamber with a volume of 0.5 mL (Warner Instruments, Hamden, Conn.) and perfused with oxygenated aCSF (35° C.) at a rate of 3-4 mL/min. […] The population spike and the field excitatory postsynaptic potentials (fEPSP) were recorded in stratum pyramidale and striatum radiatum of hippocampal CA1 region, by stimulating Schaffer Collaterals.

The next assay deals with C57BL/6 mice. The assay is described as follows: In vivo kainic acid (KA)-induced seizure model, EEG and TUNEL staining. Also on record: species or system mouse. The procedure: In an in vivo model of epilepsy (Araki et al., 2002), WT and ASIC1^−/− C57BL/6 mice. 20-25 g, had unilateral microinjection of kainic acid (KA) into the basolateral amygdala nucleus. […] Identical KA injection in ASIC1^−/− mice produced attenuated polyspike EEG activity (total duration: 109.8±30.8 sec, n=6, p<0.01 versus WT control, FIG. 8D).
TUNEL staining. Following cryostat sectioning, slices were air-dried, fixed in 10% formalin for 15 min, washed three times in PBS, permeabilized in 3% Triton X-100 for 20 min, and washed three times in PBS. Slices were subsequently incubated with a reaction mixture that contained FITC-dUTP and 300 U/mL terminal deoxy-transferase (TdT) for 90 min at 37° C. Cultures were then viewed with a fluorescent microscope at an excitation/emission wavelength of 500/550 nm (green) for FITC-TUNEL labeled cells.
Intracerebroventricular injection in mice. The procedure was performed as described in our previous studies (Pignataro et al., 2007; Xiong et al., 2004). A burr hole was drilled through the skull and a cannula inserted in the right lateral ventricle. The cannula was inserted stereotactically at 0.5 mm posterior, 1.0 mm lateral, and 3.0 mm ventral to the bregma, 0.5 μL of aCSF, amiloride, or PcTX1 was infused 60 min before KA injection.
In vivo KA-induced seizure model. A KA-induced in vivo seizure model was implemented as described in our previous studies (Araki et al., 2002). The protocol for seizure-induction in vivo in mice was approved by the Institutional Animal Care and Use Committee of Legacy Research. Adult male wild-type and ASIC1^−/− mice with genomic background of C57BL/6, 20-25 g in weight, were used for seizure induction by unilateral microinjection of KA into the basolateral amygdala nucleus based on stereotactic coordinates (AP −0.94 mm, L −2.85 mm, and V −3.75 mm relative to the Bregma). After anesthesia and catheterization of the femoral vein, animals were placed in a stereotactic frame modified with a headpiece compatible for the mouse (Kopf Instruments) and kept under anesthesia using a mixture of 68.5% N2O, 30% O2, and 1.5% isoflurane. Rectal body temperature was kept at 37±1° C. during and after the operation using either a heating pad or heating lamp (Harvard Instruments, Holiiston, Mass.). Using dental cement (Plastics One, Inc.), three skull-mounted recording electrodes were affixed to mice (Plastics One, Inc., Roanoke, Va.) and a 26-gauge steel guide cannula over the intact dura. […] The EEG was monitored for 30 min using a Grass Electroencephalogram (Model 8-16), and lorazepam (6 mg/kg, i.p.) Was then administered to terminate seizures. The EEG was further monitored for up to 30 min to ensure seizure cessation. The duration of polyspike (type 4) EEG activity for each mouse was calculated blind offline. […]

Where [1] appears, read: icv 0.5 μL aCSF containing PcTX1 500 ng/mL, 60 min before KA.
Setting [2] is: icv PcTX1 500 ng/mL, 24 hr after KA injection.

On to `NC(N)=NC(=O)c1nc(Cl)c(N)nc1N` [amiloride, 3,5-diamino-6-chloro-N(diaminomethylidene)pyrazine-2-carboxamide], for which, in the assay on mouse hippocampal slices, the “effect on amplitude or slope of normal fEPSP” value was “did not affect”.

For Psalmotoxin 1 [PcTX1], in the assay on C57BL/6 mice (setting [1]), the “duration of polyspike (type-4) EEG activity in 30 min” value amounted to 128.3 ± 60.3 s and the “mice showing polyspike EEG activity” value is “two out of six”. Further, in the assay with C57BL/6 mice (setting [2]), the “average TUNEL positive cells in CA3” value was determined as 21.8±14.1 and the “mice showing any CA3 injury” value is “two out of six”.
